Results on ten molecules are retold here after PubChem BioAssay AID2065 (Southern Research Specialized Biocontainment Screening …, 2009).

Calls of active or inactive are those of the source. The rule behind the calls is not given here.

The assay has as its system West Nile virus-infected cells, virus titer reduction. Briefly: WNV titer decrease in infected cells – cell-based, synthesized compounds (AID 2065). The following applies: at 20 µM (top of the series).
For `OC1c2cc(Br)ccc2N=C2CCCN21` (stereo not given), the log titer change, negative = inhibition is -5.53.

Regarding `CN(C)CCCN1c2ccc([N+](=O)[O-])cc2CCc2cc([N+](=O)[O-])ccc21`, the log titer change, negative = inhibition was -3.82.

`O=C(CSc1nc2ccccc2c(=O)n1-c1ccc(F)cc1)Nc1ccc2c(c1)CCC2`: the log titer change, negative = inhibition is -4.18. The figure for `COc1ccc(-c2csc(N(CCCN(C)C)C(=O)c3ccccc3Cl)n2)cc1` is -3.82; for `CCOC(=O)C1(Cc2ccccc2C(F)(F)F)CCN(C2CCN(C(C)C)CC2)CC1` it is 1.18 (inactive).

For `O=C(CSc1nc2ccccc2c(=O)n1-c1ccc(F)cc1F)Nc1ccc2c(c1)CCC2`, the log titer change, negative = inhibition is -3.82. The figure for `COc1ccc(-c2csc(N(CCCN(C)C)C(=O)c3ccccc3C)n2)cc1` is -0.48 (inactive); for `CCN(CC)CCCNC(=S)N1CCN(c2nc(-c3ccccc3)cs2)CC1` it is -5.48. The figure for `O=C(CSc1nc2ccccc2c(=O)n1-c1ccc(F)cc1F)Nc1ccc(N2CCOCC2)cc1` is -4.15. Under `CN(C)CCCNC(=S)N1CCN(c2nc(-c3ccccc3)cs2)CC1` stands -2.32.
